Source: US5212320A, “Indole derivatives and their use for testosterone 5-alpha-reductase-mediated diseases” (Fujisawa Pharmaceutical Co., Ltd., priority 1990, dated 1993)
Structures can show the parent of a compound that is named as a salt.

These compounds were tested against testosterone 5α-reductase (assay: Inhibitory activity on testosterone 5α-reductase in rats (prostatic testosterone 5α-reductase assay)). Conditions: rat ventral prostate suspension; 2.2×10^-9 M 1,2,6,7-^3H-testosterone/testosterone; 50 μM NADPH; pH 6.5; 37° C., 30 minutes.
Format: biochemical, rat (Spraque-Dawley male
Excerpt: [2] INHIBITORY ACTIVITY ON TESTOSTERONE 5α-REDUCTASE IN RATS
1,2,6,7-^3 H-Testosterone (85-105 Ci/mmol): 1,2,6,7-^3 H-Testosterone (85-105 Ci/mmol) is a mixture of 1,2,6,7-^3 H-testosterone and testosterone which includes 85-105 Ci of 1,2,6,7-^3H-testosterone per mmol of testosterone and is purchased from New England Nuclear, Boston, Mass., U.S.A.
Aquazol-2 (Aquazol-2 Universal LSC Cocktail): trademark, purchased from New England Nuclear, Boston, Mass., U.S.A.
Mature Spraque-Dawley male rats (7-8 weeks old) were sacrificed by diethyl ether. The ventral prostates were dissected to be free of their capsules and their combined volume was measured by displacement in several milliliters of ice-cold medium A (0.32M sucrose, 0.1 mM dithiothreitol and 20 mM scdium phosphate, pH 6.5). Unless specified, all the following procedures were carried out at 0°-4° C. The prostates were drained, minced, and then homogenized in 3-4 tissue volumes of medium A with Pyrex-glass homogenizer. The homogenate was fractioned by differential centrifugations at 3,000 g for 15 minutes. The resulting pellets were resuspended in medium A. The suspension (20-30 mg protein/ml) was stored at -80° C.
The reaction solution contains 1 mM dithiothreitol, 40 mM sodium phosphate pH 6.5, 50 μM NADPH, 1,2,6,7-^3 H-testosterone/testosterone (2.2×10^-9 M) and the suspension prepared above (0.8 mg of protein) in a total volume of 565 μl. Test Compound was added in 10 μl of 10% ethanol whereas control tubes received the same volume of 10% ethanol. The reaction was started with the addition of the enzyme suspension. After incubation at 37° C. for 30 minutes, the reaction was extracted with 1 ml of ethyl acetate. Fifty μl of ethyl acetate phase was chromatographed on a Merck silica plastic sheet Kieselgel 60 F254, using ethyl acetate: cyclohexane (1:1) as the developing solvent system. The plastic sheet was air dried and cut the testosterone and the 5α-dihydrotestosterone areas. The radioactivity was counted in 5 ml of Aquazol-2 in Packard scintillation counter (PACKARD TRI - CARB 4530), and an inhibitory ratio was calculated.

Compound | IC50 [nM]
CC(C)Cc1ccc(C(Cc2cccc(C(=O)c3cn(CCCC(=O)O)c4ccccc34)c2)c2ccc(CC(C)C)cc2)cc1 [(5), 4-[3-[3-[2,2-Bis(4-isobutylphenyl)ethyl]benzoyl]indol-1-yl]butyric acid] | 7.4
CC(C)Cc1ccc(C(C)Oc2ccc(C(=O)c3cn(CCCC(=O)O)c4ccccc34)cc2)cc1 (centres unmarked) [(4), 4-[3-[4-[1-(4-Isobutylphenyl)ethoxy]benzoyl]indol-1-yl]butyric acid] | 3.1
CC(C)Cc1ccc(C(Nc2cccc(C(=O)c3cn(CCCC(=O)O)c4ccccc34)c2)c2ccc(CC(C)C)cc2)cc1 [(1), 4-[3-[3-[Bis(4-isobutylphen-yl)methylamino]benzoyl]indol-1-yl]butyric acid] | 5.5
CCCCC(Oc1ccc(C(=O)c2cn(CCCC(=O)O)c3ccccc23)cc1)c1ccc(CC(C)C)cc1 (centres unmarked) [(8)] | 0.66
CC(C)Cc1ccc(C(Oc2ccc(C(=O)c3cn(CCCC(=O)O)c4ccccc34)cc2)c2ccc(CC(C)C)cc2)cc1 [(3), 4-[3-[4-[Bis(4-isobutylphenyl)methoxy]benzoyl]indol-1-yl]butyric acid] | 3.5
CC(C)Cc1ccc(CNc2cc(NCc3ccc(CC(C)C)cc3)cc(C(=O)c3cn(CCCC(=O)O)c4ccccc34)c2)cc1 [(7), 4-[3-[3,5-Bis[(4-isobutylbenzyl)amino]benzoyl]indol-1-yl]butyric acid dihydrochloride] | 3.7
Cc1c(C(=O)c2cccc(NC(c3ccc(CC(C)C)cc3)c3ccc(CC(C)C)cc3)c2)c2ccccc2n1CCCC(=O)O [(2), 4-[3-[3-[Bis(4-isobutylphenyl)methylamino]benzoyl]-2-methylindol-1-yl]butyric acid] | 8.6
O=C(O)CCCn1cc(C(=O)c2cccc(CN3c4ccccc4CCc4ccccc43)c2)c2ccccc21 [(6), 4-[3-[3-(10,11-Dihydro-5H-dibenz[b,f]azepin-5-ylmethyl)benzoyl]indol-1-yl]butyric acid] | 0.93
